Laboratory results published in patent publication US7348153B2, “Method for identifying and designing immunogenic peptides” (Health Research, Inc., priority 2004, dated 2008).
Marks after values point to notes of the source that are not given here.

How the values were obtained:
Type in all cases: cell-based, human
[1] = tested on: PBMCs from melanoma patients; assay: PBMC proliferation assay (tritiated thymidine incorporation); settings: for stimulation index: both peptides
Procedure: For proliferation assays, PBMCs were cultured in tetra-triplicate in 96-well flat-bottomed microtiter plates (Costar Corp., Cambridge, Mass.) at the concentration of 2×10^5 cells/well in 100 μl of complete RPMI 1640 containing L-glutamine and 10% fetal bovine serum. […] PBMCs were cultured for 6 days at 37° C. in a 5% CO2 atmosphere before addition of tritiated thymidine at a concentration of 1 μCi/well. Results are expressed as cpm of tritiated thymidine incorporated and as a stimulation index (Hogan et al. J Immunol 1989; 142:2097-104). The latter is the average cpm of lymphocytes cultured with peptide divided by the average cpm of lymphocytes cultured without peptide. […] After 5 additional days of culture at 37° C. cells were washed, replated, and restimulated at a 1:1 stimulator to responder ratio with irradiated (30 Gy) autologous PBMC stimulators and peptides at concentrations of 5, 25, and 50 μg/ml. IL-2 was added after 96 h, and cells were cultured for an additional 5 days at 37° C., after which they were restimulated for an additional 10 days at 37° C. Lymphocytes stimulated over three cycles were collected and used as effectors in a cytotoxicity (CTL) assay.

[2] = tested on: PBMCs from melanoma patients; assay: IFN-γ and IL-10 release by peptide-stimulated PBMC (double sandwich ELISA); settings: for IL-10 levels after restimulation / IFN-γ levels: HLA-A2+ patient 6, 2° STIM, 25 μg/ml; for IFN-γ levels: comparison between peptides (P>0.05); for IFN-γ:IL-10 ratio: 2° STIM; for average IFN-γ levels after 2° STIM: peptides 25 μg/ml
Procedure: Interaction of T cells with Ag can induce a few cycles of division resulting in Ag-primed uncommitted T cells or can induce T cells to differentiate and gain effector function. The effector function is best characterized by the ability of Ag-stimulated T cells to secrete Th1 cytokines and to mediate lysis of specific targets. To determine whether T cells from immunized patients acquired cytokine effector function, IFN-γ and IL-10 were measured in supernatants harvested from PBMC cultures stimulated with I-100 and I-102 peptides. To measure cytokine release, supernatants were collected at 24, 48, and 72 h after primary and secondary stimulation with 5, 25, and 50 μg/ml of peptides and stored frozen at −20° C. IFN-γ and IL-10 levels were measured by a double sandwich ELISA using the corresponding kits supplied by Biosource International. Assays were calibrated with human recombinant IFN-γ and IL-10 to detect each cytokine in a range of 15-1000 pg/ml.
IL-10 was assayed instead of IL-4 as a representative Th2 cytokine, because the PBMCs used as responders were from patients with melanoma. Therefore, they might contain regulatory cells. Patient 6 had supernatants saved from two separate experiments. […] Because after priming, all of the stimulated PBMCs were expanded in IL-2, we determined the effect of culturing PBMCs in IL-2 on IFN-γ induction.

[3] = tested on: T2 cells pulsed with peptide; assay: 51Cr release CTL assay against peptide-pulsed T2 cells; settings: for lysis of T2-I-100 by peptide-stimulated CTL: immunized HLA-A2+ patients 1 and 6, E:T 30:1, 4 hour 51Cr release; for lysis of T2 cells pulsed with the stimulating peptide by peptide-stimulated CTL: nonimmunized HLA-A2+ patient 4, E:T 30:1, 4 hour; for lysis of T2-I-100 and T2-I-102 targets by peptide-stimulated lymphocytes: nonimmunized HLA-A2− patient 5
Excerpt: FIGS. 5A-5E are graphical representations of cytolytic activity of NP, I-100 and I-102-CTL from HLA-A2 immunized patients # 1 and # 6 (FIGS. 5A and 5B, respectively) and from HLA-A2, non-immunized patient # 4 (FIG. 5C) against T2-NP (▪) and T2-I-100 (□) targets. FIG. 5D depicts lytic activity of NP- and I-102-CTL from HLA-A2^− patient #3 against T2-NP (▪) and T2-I-100 (□) targets. FIG. 5E depicts CTL lysis by NP-, I-100-, and I-102-CTL effectors from […] patient #5 against T2-I-100 targets. The E:T ratio was 30:1 in a 4 hour 51Cr release assay; bars, ±S D.
For proliferation assays, PBMCs were cultured in tetra-triplicate in 96-well flat-bottomed microtiter plates (Costar Corp., Cambridge, Mass.) at the concentration of 2×10^5 cells/well in 100 μl of complete RPMI 1640 containing L-glutamine and 10% fetal bovine serum. Peptides I-100 and I-101 were added at 5, 25, and 50 μg/ml in serum-free RPMI 1640 up to a total volume of 200 μl. PBMCs were cultured for 6 days at 37° C. in a 5% CO2 atmosphere before addition of tritiated thymidine at a concentration of 1 μCi/well. Results are expressed as cpm of tritiated thymidine incorporated and as a stimulation index (Hogan et al. J Immunol 1989; 142:2097-104). The latter is the average cpm of lymphocytes cultured with peptide divided by the average cpm of lymphocytes cultured without peptide. […] Peptide-specific T cells were propagated by adding recombinant interleukin (IL)2 (90 IU/ml; Biosource International, Camarillo, Calif.) to PBMCs that had been cultured for 96 h at 37° C. with peptides. After 5 additional days of culture at 37° C. cells were washed, replated, and restimulated at a 1:1 stimulator to responder ratio with irradiated (30 Gy) autologous PBMC stimulators and peptides at concentrations of 5, 25, and 50 μg/ml. IL-2 was added after 96 h, and cells were cultured for an additional 5 days at 37° C., after which they were restimulated for an additional 10 days at 37° C. Lymphocytes stimulated over three cycles were collected and used as effectors in a cytotoxicity (CTL) assay.
(§1) To determine the effects of the immunization with […] on activation of melanoma cell-lytic CTLs, we compared the responses of immunized HLA-A2^+ patients 1 and 6 with that of nonimmunized HLA-A2^+ patient 4. As specificity and restriction control we analyzed the responses of nonimmunized HLA-A2^− patients 3 and 5. All of the CTLs were tested for their ability to lyse T2 cells pulsed with the stimulating peptide and A375sm melanoma cells. Lymphocytes collected after three rounds of peptide stimulation were tested for their ability to lyse ^51Cr-labeled targets as described previously (Fisk, et al. J Exp Med 1998;181:2109-17; Murray, et al. Clin Cancer Res 2002;11:3407-18). […] Cold target inhibition of tumor cell lysis experiments was performed as described (Murray, et al. Clin Cancer Res 2002;11:3407-18).

A375SM melanoma cells = assay: 51Cr release CTL assay against A375SM melanoma cells; settings: for lysis of A375SM cells by peptide-stimulated PBMCs: immunized HLA-A2+ patient 1
Procedure: NP-, I-100, and I-102 on the abscissa indicate corresponding CTL effectors. NP-CTL indicates CTL stimulated by T2 cells and IL-2 without addition of peptides. […] The E:T ratio was 20:1 in a 20 h ^51Cr release assay. FIG. 6C depicts the kinetics of A375SM melanoma cell lysis by NP-CTL (∘), I-100-CTL (●), and I-102-CTL (▴). CTL were incubated with target cells for up to 20 h.
as §1
To determine whether in vitro stimulation with peptides generated CTLs that recognized epitopes on HMW-MAA^+/HLA-A2^+ melanoma cells, PBMCs from immunized HLA-A2^+ patients 1 and 6 were stimulated with I-100 and 1-102 peptides and then tested for their ability to lyse A375SM melanoma cells. […] Therefore, these effectors were designated as I-100 CTL and I-102 CTL, respectively.

[4] = patient 8, −/+, 1° STIM up to 6 days
[5] = HLA-A2+ patients 1, 2 and 6 immunized with MELIMMUNE
[6] = HLA-A2− patients 3, 5, 9 and 10 not immunized
[7] = patient 1, HLA-A2 phenotype/immunization +/+, 1° STIM up to 6 days
[8] = patient 2, +/+, 1° STIM up to 6 days
[9] = patient 3, HLA-A2 −, 1° STIM up to 6 days
[10] = patient 4, +/−, 1° STIM up to 6 days
[11] = patient 5, HLA-A2 −, 1° STIM up to 6 days
[12] = patient 6, +/+, 1° STIM up to 6 days
[13] = patient 7, −/+, 1° STIM up to 6 days
[14] = patient 9, −/−, 1° STIM up to 6 days
[15] = patient 10, −/−, 1° STIM up to 6 days
[16] = PBMCs from HLA-A2+ patient 6 and four HLA-A2− patients, preliminary experiments

Substance | tritiated thymidine incorporated [1, 4] | stimulation index [1, 5] | stimulation index [1, 6] | S.I. (stimulation index) [1, 7] | tritiated thymidine incorporated [1, 7] | S.I. (stimulation index) [1, 8] | S.I. (stimulation index) [1, 9] | S.I. (stimulation index) [1, 10] | S.I. (stimulation index) [1, 11] | S.I. (stimulation index) [1, 12] | tritiated thymidine incorporated [1, 12] | S.I. (stimulation index) [1, 13] | tritiated thymidine incorporated [1, 13] | S.I. (stimulation index) [1, 4] | S.I. (stimulation index) [1, 14] | tritiated thymidine incorporated [1, 14] | S.I. (stimulation index) [1, 15] | tritiated thymidine incorporated [1, 15] | IL-10 levels after restimulation [2] | IFN-γ levels [2] | also measured
E71: inactive HLA-A2 epitope from HER-2/neu protein, HER-2 (828-836) (QIAKGMSYL; UniProt P04626 828-836, looked up, fragment) [Peptide E71, reference compound] | 685±103 cpm |  |  |  |  |  |  |  |  |  |  |  |  |  |  |  |  |  |  |  | tritiated thymidine incorporated ([1]; lymphocytes from HLA-A2+ immunized patients 1, 2 and 6 (NP=353±84 cpm)): 411±190 cpm
LLQLGYSGRL (designed peptide) [Peptide I-102] | 650 ± 31 cpm | 2.7±0.7 | 1.2±0.4 | (3.3) | 1519 ± 92^a cpm | (3.0) | (1.4) | (1.7) | (2.0) | (2.8) | 1464 ± 53^a cpm | (1.2) | 755 ± 56 cpm | (1.2) | (0.9) | 425 ± 40 cpm | (1.0 | 200 ± 20 cpm | 212 ± 24 pg/mL | similar | IFN-γ:IL-10 ratio ([2]; HLA-A2+ patients): 3.96; IFN-γ:IL-10 ratio ([2]; HLA-A2− patients): 0.97; IL-10 after 2° STIM ([2]; PBMCs from HLA-A2+ patients): 155.7 ± 36.3 pg/mL; average IFN-γ levels after 2° STIM ([2]; PBMCs from HLA-A2+ patients): 616.1 ± 86.3 pg/mL; IL-10 after 2° STIM ([2]; PBMCs from HLA-A2− patients): 61.1 ± 25 pg/mL; lysis of T2-I-100 by peptide-stimulated CTL [3]: to a significantly greater extent than control targets T2-NP; lysis of T2 cells pulsed with the stimulating peptide by peptide-stimulated CTL [3]: lysed T2-I-102; lysis of T2-I-102 targets by peptide-stimulated CTL ([3]; nonimmunized HLA-A2− patient 3, compared with T2-NP): no specific lysis; lysis of T2-I-100 and T2-I-102 targets by peptide-stimulated lymphocytes [3]: unable to specifically lyse; lysis of A375SM cells by peptide-stimulated PBMCs (A375SM melanoma cells): effectively lysed A375SM cells; increase of lysis of A375SM cells from 5 h to 20 h (A375SM melanoma cells; peptide-stimulated CTL, kinetics of lysis): 59%
LLQLYSGRL (human; HMW-MAA) [Peptide I-101] |  |  |  |  |  |  |  |  |  |  |  |  |  |  |  |  |  |  |  |  | stimulation of proliferation [1, 16]: did not stimulate; stimulation of IFN-γ and IL-10 secretion [2, 16]: did not stimulate
LLVLLYSKL (mouse; mAb MF11-30) [Peptide I-100] | 490 ± 54 cpm | 2.7±0.7 | 1.2±0.4 | (2.5) | 1123 ± 240^a cpm | (3.3) | (1.1) | (1.5) | (1.7) | (3.1) | 1793 ± 58^a cpm | (1.1) | 652 ± 77 cpm | (0.9) | (0.7) | 334 ± 26 cpm | (0.9) | 184 ± 12 cpm | 86 ± 11 pg/mL | similar | tritiated thymidine incorporated [1, 9]: 655 ± 51 cpm; IFN-γ and IL-10 levels ([2]; HLA-A2+ patient 6 and HLA-A2− patient 7, after 1° STIM): low; IFN-γ:IL-10 ratio ([2]; HLA-A2+ patients): 3.96; IFN-γ:IL-10 ratio ([2]; HLA-A2− patients): 0.97; IL-10 after 2° STIM ([2]; PBMCs from HLA-A2+ patients): 155.7 ± 36.3 pg/mL; average IFN-γ levels after 2° STIM ([2]; PBMCs from HLA-A2+ patients): 616.1 ± 86.3 pg/mL; IL-10 after 2° STIM ([2]; PBMCs from HLA-A2− patients): 61.1 ± 25 pg/mL; lysis of T2-I-100 by peptide-stimulated CTL [3]: to a significantly greater extent than control targets T2-NP; lysis of T2 cells pulsed with the stimulating peptide by peptide-stimulated CTL [3]: did not lyse T2-I-100; lysis of T2-I-100 and T2-I-102 targets by peptide-stimulated lymphocytes [3]: unable to specifically lyse; lysis of A375SM cells by peptide-stimulated PBMCs (A375SM melanoma cells): effectively lysed A375SM cells
